Source: PubChem BioAssay AID2060887 (Molecular Pharmacology Branch, DTP, NCI, 2025)

Test system: 782815-120-R-J1-PDC complex spheroid viability
Test: Anticancer human tumor 782815-120-R-J1-PDC patient-derived colon adenocarcinoma cell line growth inhibition [RAS]
Settings: for IC50: curve of first compound; for viability, T/C: stronger effect = lower value
Outline: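 Multi-cell-type spheroids: tumor cells plus HUVEC endothelial cells and mesenchymal stem cells. RAS-pathway inhibitors were combined with targeted agents, each dosed in half-log steps down from clinical Cmax, or from 10 microM when Cmax was unknown.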

[1] = second compound 0.00316 µM, first compound 0.0316 µM
[2] = second compound 0.00316 µM, first compound 0.1 µM
[3] = second compound 0.00316 µM, first compound 0.316 µM
[4] = second compound 0.00316 µM, first compound 1 µM
[5] = second compound 0.01 µM, first compound 0.0316 µM
[6] = second compound 0.01 µM, first compound 0.1 µM
[7] = second compound 0.01 µM, first compound 0.316 µM
[8] = second compound 0.01 µM, first compound 1 µM
[9] = second compound 0.0316 µM, first compound 0.0316 µM
[10] = second compound 0.0316 µM, first compound 0.1 µM
[11] = second compound 0.0316 µM, first compound 0.316 µM
[12] = second compound 0.0316 µM, first compound 1 µM
[13] = second compound 0.1 µM, first compound 0.0316 µM
[14] = second compound 0.1 µM, first compound 0.1 µM
[15] = second compound 0.1 µM, first compound 0.316 µM
[16] = second compound 0.1 µM, first compound 1 µM
[17] = second compound 0.316 µM, first compound 0.0316 µM
[18] = second compound 0.316 µM, first compound 0.1 µM
[19] = second compound 0.316 µM, first compound 0.316 µM
[20] = second compound 0.316 µM, first compound 1 µM
[21] = second compound 1 µM, first compound 0.0316 µM
[22] = second compound 1 µM, first compound 0.1 µM
[23] = second compound 1 µM, first compound 0.316 µM
[24] = second compound 1 µM, first compound 1 µM
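Further: spheroids exposed to compounds for 7 days before reading.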
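Wherever viability, T/C is given: 100% = DMSO vehicle control viability.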

In the case of CC(=O)OC12COC1CC(O)C1(C)C(=O)C(O)C3=C(C)C(OC(=O)C(O)C(NC(=O)OC(C)(C)C)c4ccccc4)CC(O)(C(OC(=O)c4ccccc4)C21)C3(C)C (centres undefined) + C=CC(=O)N1CCN(c2nc(OCC3CCCN3C)nc3c(F)c(-c4nc(N)cc(C)c4C(F)(F)F)c(Cl)cc23)C(C)C1, the IC50 (second compound 0.00316 µM) is reported as < 31.6 nM, the IC50 (second compound 0.01 µM) is reported as < 31.6 nM and the IC50 (second compound 0.0316 µM) is reported as < 31.6 nM. The IC50 (second compound 0.1 µM) was < 31.6 nM, the IC50 (second compound 0.316 µM) was < 31.6 nM and the IC50 (second compound 1 µM) was < 31.6 nM. It also gave a viability, T/C [1] of 33.6%, a viability, T/C [2] of 31.1% and a viability, T/C [3] of 25.6%. It also gave a viability, T/C [4] of 23.6%, a viability, T/C (second compound 0.00316 µM, first compound 3.16 µM) of 28.3% and a viability, T/C (second compound 0.00316 µM, first compound 10 µM) of 33.2%. It also gave a viability, T/C [5] of 34.1%, a viability, T/C [6] of 32% and a viability, T/C [7] of 25.7%. It also gave a viability, T/C [8] of 22.3%, a viability, T/C (second compound 0.01 µM, first compound 3.16 µM) of 25% and a viability, T/C (second compound 0.01 µM, first compound 10 µM) of 34.1%. For the same compound, the viability, T/C [9] was 40%, the viability, T/C [10] was 24.2% and the viability, T/C [11] was 23.6%. The viability, T/C [12] was 27.6%, the viability, T/C (second compound 0.0316 µM, first compound 3.16 µM) was 23.6% and the viability, T/C (second compound 0.0316 µM, first compound 10 µM) was 34.7%. The viability, T/C [13] was 36.8%, the viability, T/C [14] was 30.4% and the viability, T/C [15] was 20.3%. For the same compound, the viability, T/C [16] was 22.9%, the viability, T/C (second compound 0.1 µM, first compound 3.16 µM) was 25% and the viability, T/C (second compound 0.1 µM, first compound 10 µM) was 29.2%. For the same compound, the viability, T/C [17] was 37.4%, the viability, T/C [18] was 27.4% and the viability, T/C [19] was 25%. It also gave a viability, T/C [20] of 23.5%, a viability, T/C (second compound 0.316 µM, first compound 3.16 µM) of 28.4% and a viability, T/C (second compound 0.316 µM, first compound 10 µM) of 29.6%. The viability, T/C [21] was 38.1%, the viability, T/C [22] was 26.9% and the viability, T/C [23] was 27.4%. The viability, T/C [24] was 23.6%, the viability, T/C (second compound 1 µM, first compound 3.16 µM) was 27.5% and the viability, T/C (second compound 1 µM, first compound 10 µM) was 33.3%.

In the case of Nc1ccn(C2OC(CO)C(O)C2(F)F)c(=O)n1 (centres undefined) + C=CC(=O)N1CCN(c2nc(OCC3CCCN3C)nc3c(F)c(-c4nc(N)cc(C)c4C(F)(F)F)c(Cl)cc23)C(C)C1, the IC50 (second compound 0.00316 µM) is reported as 62.7 nM, the IC50 (second compound 0.01 µM) is reported as 53.2 nM and the IC50 (second compound 0.0316 µM) is reported as 58.9 nM. The IC50 (second compound 0.1 µM) was 53.6 nM, the IC50 (second compound 0.316 µM) was 60.4 nM and the IC50 (second compound 1 µM) was 61.4 nM. For the same compound, the viability, T/C (second compound 0.00316 µM, first compound 0.00316 µM) was 90.9%, the viability, T/C (second compound 0.00316 µM, first compound 0.01 µM) was 81.2% and the viability, T/C [1] was 56.9%. The viability, T/C [2] was 46.9%, the viability, T/C [3] was 24.7% and the viability, T/C [4] was 19.1%. For the same compound, the viability, T/C (second compound 0.01 µM, first compound 0.00316 µM) was 93.9%, the viability, T/C (second compound 0.01 µM, first compound 0.01 µM) was 82% and the viability, T/C [5] was 57.8%. It also gave a viability, T/C [6] of 40.7%, a viability, T/C [7] of 23.6% and a viability, T/C [8] of 21%. For the same compound, the viability, T/C (second compound 0.0316 µM, first compound 0.00316 µM) was 99%, the viability, T/C (second compound 0.0316 µM, first compound 0.01 µM) was 83.5% and the viability, T/C [9] was 57.9%. For the same compound, the viability, T/C [10] was 43.6%, the viability, T/C [11] was 27.1% and the viability, T/C [12] was 21.7%. It also gave a viability, T/C (second compound 0.1 µM, first compound 0.00316 µM) of 93.3%, a viability, T/C (second compound 0.1 µM, first compound 0.01 µM) of 85.7% and a viability, T/C [13] of 54.3%. For the same compound, the viability, T/C [14] was 41.3%, the viability, T/C [15] was 31.2% and the viability, T/C [16] was 21.5%. For the same compound, the viability, T/C (second compound 0.316 µM, first compound 0.00316 µM) was 92.3%, the viability, T/C (second compound 0.316 µM, first compound 0.01 µM) was 77.6% and the viability, T/C [17] was 61.6%. For the same compound, the viability, T/C [18] was 40.9%, the viability, T/C [19] was 29.4% and the viability, T/C [20] was 21.4%. It also gave a viability, T/C (second compound 1 µM, first compound 0.00316 µM) of 92%, a viability, T/C (second compound 1 µM, first compound 0.01 µM) of 85.8% and a viability, T/C [21] of 58.8%. For the same compound, the viability, T/C [22] was 43%, the viability, T/C [23] was 29.2% and the viability, T/C [24] was 23.1%.
